For one data set, the system named is Erb B2. Kind of data set: Western blot of receptor levels in A549 cells: Erb B2. The format is cell-based, human. On the procedure:
(§1) Levels of Erb-1, Erb-2, Erb-3, Erb-4 and VEGFR were determined by western blot analysis.

In the next data set the test system is Erb B3. In words: Western blot of receptor levels in A549 cells: Erb B3. The format is cell-based, human. How it is done:
as §1

The test system of another data set is H1299 and A549 cells. In words: Matrigel invasion assay (modified Boyden chamber). Conditions: cells treated 48 hr, migration 24 h. The format is cell-based, human. How it is done:
The in vitro invasiveness of H1299 and A549 cells in the presence of various concentrations of NRC compounds (as determined by MTT assay) was assessed using a modified Boyden chamber assay. Cells were treated with these compounds for 48 hr. 1×10^6 cells were suspended in 600 μl of serum-free medium supplemented with 0.2% BSA and placed in the upper compartment of the transwell chambers (Corning Costar Fisher Scientific cat #07-200-158, Pittsburgh Pa.) coated with matrigel (0.7 mg/ml). The lower compartment of the chamber was filled with 200 μl of serum medium and the cells were allowed to migrate for 24 h. after incubation, the cells were fixed and stained with Hema-3 and quantified as previously described (Mohanam et al. 1993). The migrated cells were quantified as percent invasion.

Data set [1] concerns A549 cells. In words: In vivo evaluation on subcutaneous lung tumours in nude mice. The note with it: for tumour regression: subcutaneous A549 tumours.
Excerpt: Nude mice were implanted with 2×10^6 A549 cells in the right hind limb flank.
The subject of the next data set is VEGFR. In words: Western blot of receptor levels in A549 cells: VEGFR. It is filed as cell-based, human. How it is done:
as §1
Background: Immunoblotting shows a protein as a band on a membrane.

In data set [2] the test system is A549 luciferase expressing cells. Kind of data set: Evaluation of lung tissue harvested from nude mice after treatment. Conditions: various concentrations, oral/ip routes. The format is in vivo.
Another data set deals with T1, EGFR (Homo sapiens, UniProt P00533).
T1 construct: endogenous in cells; host or cells: H1299 or A549 cells
Kind of data set: Western blot analysis of EGFR expression. The format is cell-based. Conditions: for concentration causing comparable inhibition of EGFR expression: H1299 or A549 cells, 72 hr.

Data set [3] concerns A549 cells. In words: Evaluation of ED50 from lung section and tumor regression studies. Conditions: oral route, based on lung section and tumor regression studies. It is filed as in vivo, nude mice. How it is done:
The ED50 values were evaluated based on the lung section and tumor regression studies. […].

In data set [4] the test system is A549 cells. In words: Visualization of tumors in lung tissue (H&E sections). It is filed as in vivo, nude mice. Conditions: intrapulmonary A549, 2.5 and 20 mg/Kg, oral/ip, thirty days daily treatment. The source says: Nude mice were implanted by intrapulmonary injections of A549 cells. […] Thirty days after daily drug treatments, mice were sacrificed and lungs harvested. The lung tissues were fixed in 10% buffered formaldehyde, paraffin embedded and sectioned. The sections were H&E stained as per statutory protocols to visualize solid or diffuse tumors.

Data set [5] has as its system A549 luciferase expressing cells. In words: Nude mice implanted with A549 luciferase expressing cells, tumor observation. The note with it: 42 days treatment, oral and ip routes. The format is in vivo.
The test system of a further data set is Erb B4. Kind of data set: Western blot of receptor levels in A549 cells: Erb B4. The format is cell-based, human. On the procedure: as §1
For a further data set, the system named is male and female mice. In words: Acute toxicity (LD0, LD50) in mice. It is filed as in vivo. The note with it: single oral dose; for LD50: Litchfield and Wilcoxon; for LD0: no mortality at end of 7 days. On the procedure:
The doses 500, 750, 1000 and 2000 mg/Kg were administered orally. Each group consists of 5 mice. […] The survived animals were autopsied for asserting the absorption of compound through g.i.t.
The LD50 was determined using Litchfield and Wilcoxon (J. Pharmacol. Exp. Ther. 1949, 96: 99-113).

Another data set deals with A549 and H1299 cells. In words: cells. The note with it: Homo sapiens, read-out: inhibiting concentration (IC50).

Each structure is given as a SMILES string. Entries after “also recorded” stand apart in the source; their conditions may differ. Structures can show the parent of a compound that is named as a salt. Where two headings read alike, the source gives them in different places.

Description for A549 and H1299 cells: Solubilization of the cells by the addition of a detergent results in the liberation of the crystals, which are solubilized. The number of surviving cells is directly proportional to the level of the formazan product created. The color can then be quantified using a simple colorimetric assay. This assay was done using 0-1000 ng/ml concentrations of Erlotinib and the test compounds in A549 and H1299 cells.

Consider `C#Cc1cccc(Nc2ncnc3cc(OC)c(OCCCN4CCOCC4)cc23)c1` [NRC-2694, N-(3-ethylnylphenyl)-7-methoxy-6-[3-(4-morpholinyl)propoxy]-4-quinazolinamine], for which the figures for the “Erb B2 level” value in the data set with Erb B2 and in the data set with Erb B2 (listed as NRC 2694) were “down regulating” and “down regulated”, respectively. For the same compound, the “Erb B3 level” value is on record as “down regulating” in the data set on Erb B3 and “down regulated” in the data set with Erb B3 (listed as NRC 2694). Further, the invasion result in the data set with H1299 and A549 cells was “significant decrease in invasion in a dose dependent manner”. Also, the tumour regression result with A549 cells [1] (10 mg/Kg dose) is reported as “complete regression of tumours”. Further, the “superiority in efficacy versus erlotinib HCl” value in the data set with A549 cells [1] (10 mg/Kg versus 100 mg/Kg) is “ten fold”. Further, the results for the VEGFR level result with VEGFR and with VEGFR (listed as NRC 2694) were “down regulating” and “down regulated”, respectively. In data set [2], the “residual tumours in harvested lungs” value is on record as “Complete regression of tumours”. At EGFR (80 ng versus 800 ng), the “level of efficacy versus erlotinib HCl (EGFR expression)” value is recorded as “ten fold”. Further, the “concentration causing comparable inhibition of EGFR expression” value at EGFR came to 80 ng; on EGFR (value in parentheses), 190 nm. For the same compound, in the data set on A549 cells [3], the median effective dose (ED50) – broadly, the midpoint of the dose-response relation – was 6.3 mg/kg. Moreover, in the data set on A549 cells [4], the “tumors in lung tissue sections, comparison with erlotinib HCl” value is reported as “fared much better”. For the same compound, in [5], the “tumors at end of treatment” value is given as “No tumors were observed”. Moreover, the figures for the “Erb B4 level” value in the data set with Erb B4 and with Erb B4 (listed as NRC 2694) were “down regulating” and “down regulated”, respectively. Further, the LD50 (usually the dose at which mortality reaches 50%) in the data set with male and female mice is given as “could not be pinpointed”. Besides, the LD0 in the data set with male and female mice is 2000 mg/kg (po).

In the case of `C#Cc1cccc(Nc2ncnc3cc(OCCOC)c(OCCOC)cc23)c1` [Erlotinib HCl, N-(3-Ethylnylphenyl)-6,7-bis(2-methoxyethoxy)-4-quinazolinamine, reference compound], the “Erb B2 level” value in the data set with Erb B2 is reported as “not seen at all; also recorded: no such indication was seen”. Besides, in the data set on Erb B3, the “Erb B3 level” value is recorded as “not seen at all; also recorded: no such indication was seen”. The tumour regression result in the data set with A549 cells [1] (100 mg/Kg dose) was “could not induce complete tumor regression; also recorded: tumours were still present”. In the data set with VEGFR, the VEGFR level result is listed as “not seen at all; also recorded: no such indication was seen”. Also, the “residual tumours in harvested lungs” value in data set [2] was “tumours were still present”. In addition, the IC50 with A549 and H1299 cells came out at 0.836 µg/mL. The ED50 in the data set on A549 cells [3] (Mus musculus, A549, read-out: ED50) came to 22 mg/kg. Also, the “tumors at end of treatment” value in data set [5] is “residual tumors were still present”. Further, the “Erb B4 level” value with Erb B4 is recorded as “not seen at all; also recorded: no such indication was seen”. Besides, in the data set with male and female mice, the median lethal dose (LD50) was 805 mg/kg (po) and the LD0 was 500 mg/kg (po).
